What was measured:
[1] = Maximal bubble pressure
[2] = xn = mol fraction of the nth substance listed; details: Maximal bubble pressure

CCCCCCCCCC [decane]
[1]
Details | surface tension liquid-gas [mN/m]
293.15 K | 23.83
303.15 K | 22.91
313.15 K | 21.91
323.15 K | 21.07
333.15 K | 20.15
343.15 K | 19.23

CCCCCCC [heptane]
[1]
Details | surface tension liquid-gas [mN/m]
283.15 K | 21.11
293.15 K | 20.12
303.15 K | 19.13
313.15 K | 18.11
323.15 K | 17.15

CCCCC [pentane]
[1]
Details | surface tension liquid-gas [mN/m]
293.15 K | 15.94
298.15 K | 15.3
305.15 K | 14.36
318.15 K | 12.6
323.15 K | 11.95

CCCCC [pentane] + CCCCCCC
surface tension liquid-gas [mN/m], [2]
Details | x1 = 0.165 | x1 = 0.308 | x1 = 0.432 | x1 = 0.542 | x1 = 0.64 | x1 = 0.727 | x1 = 0.877 | x1 = 0.971
293.15 K | 19.62 | 19.11 | 18.6 | 18.15 | 17.71 | 17.29 | 16.65 | 16.08
298.15 K | 18.98 | 18.5 | 17.9 | 17.35 | 16.9 | 16.48 | 15.85 | 15.29
305.15 K | 18.16 | 17.64 | 17.13 | 16.64 | 16.17 | 15.74 | 14.97 | 14.49
318.15 K | 16.91 | 16.24 | 15.66 | 15.1 | 14.57 | 14.08 | 13.23 | 12.7
323.15 K | 16.33 | 15.55 | 14.88 | 14.4 | 13.93 | 13.41 | 12.6 | 12.12

O [water]
[1]
Details | surface tension liquid-gas [mN/m]
293.15 K | 72.84
298.15 K | 72.03
303.15 K | 71.24
308.15 K | 70.44
313.15 K | 69.61
323.15 K | 67.96
